Data published in US20120245137A1 (Zalicus Pharmaceuticals Ltd., priority 2009, published 2012).

How the values were obtained:
Type in all cases: cell-based
[1] = molecular target: human α1H T-type channels (Homo sapiens, UniProt O95180); test: T-type calcium channel block, whole cell patch clamp, α1H; conditions: HEK cells stably expressing human α1H; mainly non-inactivated protocol; values above 10,000 nM represented as 10000
Method in brief: (§1)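 Using standard patch-clamp, T-type currents were recorded from stably transfected human α1G or α1H HEK 293 cells. Separate non-inactivating and inactivation voltage protocols distinguished resting from voltage-dependent block by locally applied compound in 0.1-0.01% DMSO.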

[2] = molecular target: N-type calcium channel subunits (α1B, α2δ, and β3a) (Homo sapiens, UniProt Q00975); test: Block of Cav2.2 channel, whole cell voltage clamp, manual and PatchXpress; conditions: Table 5; table follows Assay Example 3 (whole cell voltage clamp / PatchXpress); assay not given
N-type calcium channel subunits (α1B, α2δ, and β3a), sequence (Q00975 whole entry): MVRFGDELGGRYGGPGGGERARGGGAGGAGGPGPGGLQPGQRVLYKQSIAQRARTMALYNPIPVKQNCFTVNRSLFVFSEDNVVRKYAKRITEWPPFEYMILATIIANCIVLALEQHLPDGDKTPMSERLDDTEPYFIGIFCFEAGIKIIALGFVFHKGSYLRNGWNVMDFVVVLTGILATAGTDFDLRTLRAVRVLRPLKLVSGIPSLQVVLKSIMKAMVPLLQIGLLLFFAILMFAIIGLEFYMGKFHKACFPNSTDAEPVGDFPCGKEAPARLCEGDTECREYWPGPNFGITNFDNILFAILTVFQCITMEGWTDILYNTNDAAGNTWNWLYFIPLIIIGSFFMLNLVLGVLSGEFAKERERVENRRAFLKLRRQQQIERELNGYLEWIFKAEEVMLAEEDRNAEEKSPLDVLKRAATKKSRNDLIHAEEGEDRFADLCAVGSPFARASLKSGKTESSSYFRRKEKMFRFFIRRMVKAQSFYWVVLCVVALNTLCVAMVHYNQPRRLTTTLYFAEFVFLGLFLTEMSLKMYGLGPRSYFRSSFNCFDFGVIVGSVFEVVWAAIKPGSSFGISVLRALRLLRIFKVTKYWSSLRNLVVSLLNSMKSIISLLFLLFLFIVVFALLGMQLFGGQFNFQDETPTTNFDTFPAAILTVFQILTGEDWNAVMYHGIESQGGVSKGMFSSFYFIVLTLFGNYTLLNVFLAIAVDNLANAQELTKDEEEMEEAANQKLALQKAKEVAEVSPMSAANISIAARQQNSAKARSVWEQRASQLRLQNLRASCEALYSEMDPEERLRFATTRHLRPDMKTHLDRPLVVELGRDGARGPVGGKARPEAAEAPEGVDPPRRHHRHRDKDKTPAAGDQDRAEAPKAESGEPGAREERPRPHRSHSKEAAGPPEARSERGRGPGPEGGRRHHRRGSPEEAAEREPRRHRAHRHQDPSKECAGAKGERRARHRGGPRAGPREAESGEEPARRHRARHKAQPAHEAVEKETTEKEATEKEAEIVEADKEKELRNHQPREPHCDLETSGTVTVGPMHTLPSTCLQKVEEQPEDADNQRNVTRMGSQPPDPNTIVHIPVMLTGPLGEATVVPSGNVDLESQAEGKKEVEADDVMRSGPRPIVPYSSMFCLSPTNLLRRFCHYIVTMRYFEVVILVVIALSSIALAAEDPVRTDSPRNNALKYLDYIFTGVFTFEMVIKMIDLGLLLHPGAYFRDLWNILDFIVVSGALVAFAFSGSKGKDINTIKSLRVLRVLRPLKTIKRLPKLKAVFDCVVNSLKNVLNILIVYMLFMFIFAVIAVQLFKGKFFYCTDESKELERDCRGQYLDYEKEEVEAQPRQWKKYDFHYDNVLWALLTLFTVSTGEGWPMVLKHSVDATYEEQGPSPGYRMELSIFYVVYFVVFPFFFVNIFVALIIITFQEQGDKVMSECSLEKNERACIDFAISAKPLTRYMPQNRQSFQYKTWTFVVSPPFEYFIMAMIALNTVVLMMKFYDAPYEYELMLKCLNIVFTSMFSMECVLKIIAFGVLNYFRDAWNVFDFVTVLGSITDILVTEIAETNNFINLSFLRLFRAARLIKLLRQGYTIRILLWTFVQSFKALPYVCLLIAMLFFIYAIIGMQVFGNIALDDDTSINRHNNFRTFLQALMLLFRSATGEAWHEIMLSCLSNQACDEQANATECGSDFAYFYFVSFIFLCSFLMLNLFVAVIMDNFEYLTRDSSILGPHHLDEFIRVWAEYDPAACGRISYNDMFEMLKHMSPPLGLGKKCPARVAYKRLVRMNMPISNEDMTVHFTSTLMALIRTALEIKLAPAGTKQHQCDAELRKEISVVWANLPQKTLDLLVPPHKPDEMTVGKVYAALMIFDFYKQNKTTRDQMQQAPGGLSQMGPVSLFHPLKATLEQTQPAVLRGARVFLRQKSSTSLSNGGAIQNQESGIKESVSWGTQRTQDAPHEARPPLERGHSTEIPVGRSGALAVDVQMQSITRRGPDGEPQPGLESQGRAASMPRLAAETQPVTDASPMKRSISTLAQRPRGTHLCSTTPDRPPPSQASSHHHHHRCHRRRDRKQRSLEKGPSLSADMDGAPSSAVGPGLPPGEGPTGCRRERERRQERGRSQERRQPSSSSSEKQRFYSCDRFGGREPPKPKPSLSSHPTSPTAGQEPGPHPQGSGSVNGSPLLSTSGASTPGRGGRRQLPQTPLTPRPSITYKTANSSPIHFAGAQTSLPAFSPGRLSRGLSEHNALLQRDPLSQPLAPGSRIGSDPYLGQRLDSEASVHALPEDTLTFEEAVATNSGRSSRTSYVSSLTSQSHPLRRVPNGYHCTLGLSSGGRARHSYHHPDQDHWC
N-type calcium channel subunits (α1B, α2δ, and β3a), sequence (P54289 25-1103 partner): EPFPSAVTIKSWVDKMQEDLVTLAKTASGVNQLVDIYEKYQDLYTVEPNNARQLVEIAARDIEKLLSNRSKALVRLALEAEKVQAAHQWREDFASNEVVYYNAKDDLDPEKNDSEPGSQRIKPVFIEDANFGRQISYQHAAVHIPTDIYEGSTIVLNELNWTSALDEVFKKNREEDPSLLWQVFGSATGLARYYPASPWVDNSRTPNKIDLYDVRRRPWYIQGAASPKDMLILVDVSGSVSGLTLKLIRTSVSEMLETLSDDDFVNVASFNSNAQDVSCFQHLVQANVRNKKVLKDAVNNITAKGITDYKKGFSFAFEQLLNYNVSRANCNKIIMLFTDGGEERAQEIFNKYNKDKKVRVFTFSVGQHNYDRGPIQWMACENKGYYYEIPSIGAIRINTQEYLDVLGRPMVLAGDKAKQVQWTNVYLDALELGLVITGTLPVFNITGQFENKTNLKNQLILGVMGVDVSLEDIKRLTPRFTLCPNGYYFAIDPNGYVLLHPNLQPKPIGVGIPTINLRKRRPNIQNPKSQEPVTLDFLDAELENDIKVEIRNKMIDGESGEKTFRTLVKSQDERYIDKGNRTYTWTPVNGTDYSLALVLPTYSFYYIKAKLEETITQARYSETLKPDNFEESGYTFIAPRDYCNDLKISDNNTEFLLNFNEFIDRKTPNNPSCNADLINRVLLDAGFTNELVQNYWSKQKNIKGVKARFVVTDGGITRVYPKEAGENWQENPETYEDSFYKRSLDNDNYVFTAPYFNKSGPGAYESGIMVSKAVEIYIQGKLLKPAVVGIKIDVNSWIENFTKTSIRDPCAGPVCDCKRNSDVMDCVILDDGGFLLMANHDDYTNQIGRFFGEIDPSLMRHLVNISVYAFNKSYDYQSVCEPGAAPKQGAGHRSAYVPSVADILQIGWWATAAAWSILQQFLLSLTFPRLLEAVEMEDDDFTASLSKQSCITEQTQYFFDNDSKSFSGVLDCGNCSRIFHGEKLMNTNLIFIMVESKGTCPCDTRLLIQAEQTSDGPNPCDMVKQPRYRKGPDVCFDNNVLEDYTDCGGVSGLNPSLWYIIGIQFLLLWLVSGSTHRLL
N-type calcium channel subunits (α1B, α2δ, and β3a), sequence (P54284 whole entry partner): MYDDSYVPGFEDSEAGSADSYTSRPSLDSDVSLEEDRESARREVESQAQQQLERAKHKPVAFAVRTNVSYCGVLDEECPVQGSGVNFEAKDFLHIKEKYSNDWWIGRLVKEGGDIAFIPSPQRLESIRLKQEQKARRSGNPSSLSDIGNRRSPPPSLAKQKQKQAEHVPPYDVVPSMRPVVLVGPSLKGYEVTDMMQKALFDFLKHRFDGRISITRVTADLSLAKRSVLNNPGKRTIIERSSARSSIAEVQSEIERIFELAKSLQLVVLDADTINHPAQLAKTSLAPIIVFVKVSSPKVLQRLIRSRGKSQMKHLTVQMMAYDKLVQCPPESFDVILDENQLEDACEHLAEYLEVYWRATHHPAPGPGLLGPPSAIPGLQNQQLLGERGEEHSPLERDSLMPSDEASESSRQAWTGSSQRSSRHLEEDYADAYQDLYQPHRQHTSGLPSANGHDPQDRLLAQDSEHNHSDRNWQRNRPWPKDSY
Method in brief: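 Percent block taken as current amplitude ratio with versus without compound, applied in rising doses; IC50 fitted where one cell received multiple doses. Protocol: 50 ms pulses to +20 mV at 0.067 Hz from […] or −90 mV holding; P/n leak subtraction, no junction-potential correction; manual and PatchXpress recordings.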

[3] = molecular target: human α1G T-type channels (Homo sapiens, UniProt O43497); test: T-type calcium channel block, whole cell patch clamp, α1G; conditions: HEK cells stably expressing human α1G; mainly non-inactivated protocol; values above 10,000 nM represented as 10000
Method in brief: as §1

| SMILES | IC50 [1] [µM] | IC50 [2] [nM] | IC50 [3] [µM] |
| --- | --- | --- | --- |
| CN(C(=O)CN[C@H]1CC[C@@](F)(S(=O)(=O)c2cccc(C(F)(F)F)c2)CC1)C(C)(C)C [Compound 88, N-tert-butyl-2-((1S,4S)-4-fluoro-4-(3-(trifluoromethyl)phenylsulfonyl)cyclohexylamino)-N-methylacetamide] | 3.03 | 70 | > 10 |
| CC1(NC(=O)CN[C@H]2CC[C@@](F)(S(=O)(=O)c3cccc(C(F)(F)F)c3)CC2)CCC1 [Compound 89, 2-((1S,4S)-4-fluoro-4-(3-(trifluoromethyl)phenylsulfonyl)cyclohexylamino)-N-(1-methylcyclobutyl)acetamide] | 0.99 | 120 | 1.71 |
| CC1(NC(=O)CN[C@H]2CC[C@](F)(S(=O)(=O)c3cccc(C(F)(F)F)c3)CC2)CCC1 [Compound 91, 2-((1R,4R)-4-fluoro-4-(3-(trifluoromethyl)phenylsulfonyl)cyclohexylamino)-N-(1-methylcyclobutyl)acetamide] | 0.94 | 410 | 2.45 |
| CC1(NC(=O)c2ccc(F)c(C(F)(F)F)c2)CCC(F)(S(=O)(=O)c2cccc(C(F)(F)F)c2)CC1 (stereo not drawn) [Compound 92, 4-fluoro-N-(4-fluoro-1-methyl-4-(3-(trifluoromethyl)phenylsulfonyl)cyclohexyl)-3-(trifluoromethyl)benzamide] | 0.64 | 330 | 2.23 |
| COc1cc(F)cc(C(=O)NC2(C)CCC(F)(S(=O)(=O)c3cccc(C(F)(F)F)c3)CC2)c1 (stereo not drawn) [Compound 94, 3-fluoro-N-(4-fluoro-1-methyl-4-(3-(trifluoromethyl)phenylsulfonyl)cyclohexyl)-5-methoxybenzamide] | > 10 | 230 | > 10 |
| CC(C)(C)OC(=O)N[C@H]1CC[C@H](S(=O)(=O)c2cccc(C(F)(F)F)c2)CC1 [Compound 95, tert-butyl(1R,4R)-4-(3-(trifluoromethyl)phenylsulfonyl) cyclohexylcarbamate] | 2.15 | 1640 | 6.97 |
| CC(C)(C)OC(=O)N[C@H]1CC[C@@H](S(=O)(=O)c2cccc(C(F)(F)F)c2)CC1 [Compound 96, tert-butyl(1S,4S)-4-(3-(trifluoromethyl)phenylsulfonyl) cyclohexylcarbamate] | 3.82 | 430 | > 10 |
| O=C(CNCC1CC(S(=O)(=O)c2cccc(C(F)(F)F)c2)C1)NC1CCCCC1 (stereo not drawn) [Compound 97, N-cyclohexyl-2-((3-(3-(trifluoromethyl)phenylsulfonyl)cyclobutyl)methylamino)acetamide] | > 10 | 490 | 2.14 |
| CC(C)(C)NC(=O)CNC1(C)CCC(F)(S(=O)(=O)c2cccc(C(F)(F)F)c2)CC1 (stereo not drawn) [Compound 98, N-tert-butyl-2-(4-fluoro-1-methyl-4-(3-(trifluoromethyl)phenylsulfonyl)cyclohexylamino)acetamide] | > 10 | 680 | > 10 |
| O=C(N[C@H]1CC[C@H](CS(=O)(=O)c2cccc(C(F)(F)F)c2)CC1)c1ccc(F)c(C(F)(F)F)c1 [Compound 99, 4-fluoro-3-(trifluoromethyl)-N-((1R,4R)-4-((3-(trifluoromethyl)phenylsulfonyl)methyl)cyclohexyl)benzamide] | > 10 | 3750 | > 10 |
| COc1cc(F)cc(C(=O)N[C@H]2CC[C@H](CS(=O)(=O)c3cccc(C(F)(F)F)c3)CC2)c1 [Compound 100, 3-fluoro-5-methoxy-N-((1R,4R)-4-((3-(trifluoromethyl)phenylsulfonyl)methyl)cyclohexyl)benzamide] | 1.79 | 2320 | 5.39 |
| Cn1nc(C(F)(F)F)cc1C(=O)N[C@H]1CC[C@H](CS(=O)(=O)c2cccc(C(F)(F)F)c2)CC1 [Compound 102, 1-methyl-3-(trifluoromethyl)-N-((1R,4R)-4-((3-(trifluoromethyl)phenylsulfonyl)methyl)cyclohexyl)-1H-pyrazole-5-carboxamide] | > 10 | 630 | > 10 |
| Cn1cc(C(=O)N[C@H]2CC[C@H](CS(=O)(=O)c3cccc(C(F)(F)F)c3)CC2)c(C(F)(F)F)n1 [Compound 106, 1-methyl-3-(trifluoromethyl)-N-((1R,4R)-4-((3-(trifluoromethyl)phenylsulfonyl)methyl)cyclohexyl)-1H-pyrazole-4-carboxamide] | > 10 | 1940 | 2.18 |
| O=C(N[C@H]1CC[C@H](CS(=O)(=O)c2cccc(C(F)(F)F)c2)CC1)c1cc(-c2ccc(F)cc2)n[nH]1 [Compound 108, 3-(4-fluorophenyl)-N-((1R,4R)-4-((3-(trifluoromethyl)phenylsulfonyl)methyl)cyclohexyl)-1H-pyrazole-5-carboxamide] | > 10 | 720 | 6.3 |
| O=C(CN[C@H]1CC[C@H](CS(=O)(=O)c2cccc(C(F)(F)F)c2)CC1)NCC(F)(F)F [Compound 113, N-(2,2,2-trifluoroethyl)-2-((1R,4R)-4-((3-(trifluoromethyl)phenylsulfonyl)methyl)cyclohexylamino)acetamide] | 5.35 | 130 | > 10 |
| CC(C)(C)NC(=O)CN[C@H]1CC[C@H](CS(=O)(=O)c2cccc(C(F)(F)F)c2)CC1 [Compound 114, N-tert-butyl-2-((1R,4R)-4-((3-(trifluoromethyl)phenylsulfonyl)methyl)cyclohexylamino)acetamide] | > 10 | 510 | > 10 |
| CN(C(=O)CN[C@H]1CC[C@H](CS(=O)(=O)c2cccc(C(F)(F)F)c2)CC1)C(C)(C)C [Compound 115, N-tert-butyl-N-methyl-2-((1R,4R)-4-((3-(trifluoromethyl)phenylsulfonyl)methyl)cyclohexylamino)acetamide] | > 10 | 650 | > 10 |
| CCN(CC)C(=O)CN[C@H]1CC[C@H](CS(=O)(=O)c2cccc(C(F)(F)F)c2)CC1 [Compound 116, N,N-diethyl-2-((1R,4R)-4-((3-(trifluoromethyl)phenylsulfonyl)methyl)cyclohexylamino)acetamide] | 4.24 | 2090 | 8.32 |
| O=C(CN[C@H]1CC[C@H](CS(=O)(=O)c2cccc(C(F)(F)F)c2)CC1)NC1CCCCC1 [Compound 118, N-cyclohexyl-2-((1R,4R)-4-((3-(trifluoromethyl)phenylsulfonyl)methyl)cyclohexylamino)acetamide] | > 10 | 790 | > 10 |
| O=C(N[C@H]1CC[C@H](S(=O)(=O)c2cccc(C(F)(F)F)c2)CC1)c1ccc(Cl)c(C(F)(F)F)c1 [Compound 125, 4-chloro-3-(trifluoromethyl)-N-((1R,4R)-4-(3-(trifluoromethyl)phenylsulfonyl)cyclohexyl)benzamide] | 2.97 | 900 | 2.91 |
| COc1cc(Cl)ccc1C(=O)N[C@H]1CC[C@H](S(=O)(=O)c2cccc(C(F)(F)F)c2)CC1 [Compound 127, 4-chloro-2-methoxy-N-((1R,4R)-4-(3-(trifluoromethyl)phenylsulfonyl)cyclohexyl)benzamide] | 1.56 | 1290 | 1.14 |
| O=C(N[C@H]1CC[C@@H](S(=O)(=O)c2cccc(C(F)(F)F)c2)CC1)c1ccc(Cl)c(F)c1 [Compound 130, 4-chloro-3-fluoro-N-((1S,4S)-4-(3-(trifluoromethyl)phenylsulfonyl)cyclohexyl)benzamide] | 0.94 | 290 | 0.43 |
| O=C(N[C@H]1CC[C@@H](S(=O)(=O)c2cccc(C(F)(F)F)c2)CC1)c1ccc(F)c(Cl)c1 [Compound 131, 3-chloro-4-fluoro-N-((1S,4S)-4-(3-(trifluoromethyl)phenylsulfonyl)cyclohexyl)benzamide] | 0.61 | 160 | 0.16 |
| O=C(N[C@H]1CC[C@@H](S(=O)(=O)c2cccc(C(F)(F)F)c2)CC1)c1ccc(Cl)c(C(F)(F)F)c1 [Compound 132, 4-chloro-3-(trifluoromethyl)-N-((1S,4S)-4-(3-(trifluoromethyl)phenylsulfonyl)cyclohexyl)benzamide] | 4.55 | 1720 | 3.67 |
| O=C(N[C@H]1CC[C@@H](S(=O)(=O)c2cccc(C(F)(F)F)c2)CC1)c1ccc(Cl)c(OC(F)(F)F)c1 [Compound 133, 4-chloro-3-(trifluoromethoxy)-N-((1S,4S)-4-(3-(trifluoromethyl)phenylsulfonyl)cyclohexyl)benzamide] | 0.4 | 210 | 0.35 |
| COc1cc(Cl)ccc1C(=O)N[C@H]1CC[C@@H](S(=O)(=O)c2cccc(C(F)(F)F)c2)CC1 [Compound 134, 4-chloro-2-methoxy-N-((1S,4S)-4-(3-(trifluoromethyl)phenylsulfonyl)cyclohexyl)benzamide] | 1.82 | 500 | 2.63 |
| CC1(CNC(=O)c2ccc(F)c(C(F)(F)F)c2)CCC(S(=O)(=O)c2cccc(C(F)(F)F)c2)CC1 (stereo not drawn) [Compound 135, 4-fluoro-N-((1-methyl-4-(3-(trifluoromethyl)phenylsulfonyl)cyclohexyl)methyl)-3-(trifluoromethyl)benzamide] | 0.76 | 100 | 0.78 |
